Reference: patent publication US8575142B2, “Agent for improving insulin resistance” (Morinaga Milk Industry Co., Ltd., priority 2005, dated 2013)
“And” between values parts separate entries of the source, which are not always exact repeats. Equal entries are not always repeated.

Legend:
Assay type in all cases: in vivo
[1] = system: AKR mice to which insulin resistance was induced by feeding with a high-fat diet; experiment: Insulin tolerance test in AKR mice with high-fat-diet-induced insulin resistance; details: 45th day of oral administration, 25 μg/kg once a day; 4 hours fasted; 0.75 U/kg human insulin intraperitoneally; up to 60 minutes; compared with negative sample
Experimental: The present example was performed by using AKR mice to which insulin resistance was induced by feeding with a high-fat diet, to confirm an enhancing effect of the agent for improving insulin resistance of the present invention on insulin sensitivity by performing an insulin tolerance test.
In Example 3, the same test samples and negative sample as those prepared in Examples 1 and 2 were used.
After that, the mice were divided into groups of 8 mice each. Each of the groups of mice was orally administered with 1 ml per 40 g of body weight (25 μg/kg of body weight) of a test sample or the negative sample once a day using a sonde. […] The insulin tolerance test in the present example was performed in such a manner that: the mice were fasted for 4 hours, and were then intraperitoneally administered with 0.75 U/kg of body weight of a human insulin (Eli Lily and Company); and changes with time in blood glucose level were measured from the initiation of the administration of insulin to after 60 minutes later.

MCP-1 = MCP-1 production by epididymal fat tissues collected from treated insulin-resistant AKR mice (ELISA); details: for MCP-1: culture supernatant of epididymal fat tissue after 1 hour culture, 60th day of oral administration, 25 μg/kg once a day; for Effect on production of MCP-1 as compared with negative sample group: fat tissues, 60th day, 25 μg/kg oral once a day, Tukey-Kramer's test
Experimental: (§1) The present example was performed by using AKR mice to which insulin resistance was induced by feeding with a high-fat diet, to evaluate the effects of the agent for amelioration insulin resistance of the present invention on production of TNF-α and MCP-1 from respective cells of fat tissues.
(§2) In Example 2, the same test samples and negative sample as those prepared in Example 1 were used.
(§3) After that, the mice were divided into groups of 8 mice each. Each of the groups of mice was orally administered with 1 ml per 40 g of body weight (25 μg/kg of body weight) of a test sample or the negative sample once a day using a sonde. […] After 1 hour of the culture, culture supernatants were collected, and concentrations of TNF-α and MCP-1 in the culture supernatants were measured by ELISA (Biosource).

[2] = system: AKR mice to which insulin resistance was induced by feeding with a high-fat diet; experiment: Level of free fatty acid in serum of AKR mice with high-fat-diet-induced insulin resistance; details: 60th day of oral administration; for Free fatty acid: mouse serum, under fasting, 25 μg/kg of body weight once a day; for Test sample/negative sample (free fatty acid level in serum): relative to negative sample group, 25 μg/kg once a day
Experimental: Compound 3 (4-methylcholest-7-en-3-ol), Compound 4 (4-methylergost-7-en-3-ol), and Compound 5 (4-methylstigmast-7-en-3-ol) which were produced in Preparation Example 1 were each dissolved in DMSO and adjusted with distilled water to each have a concentration of 1 μg/ml, to thereby prepare Test Samples 1, 2, and 3. In this case, DMSO was adjusted to have a final concentration of 0.2%.
After that, the mice were divided into groups of 8 mice each. Each of the groups of mice were orally administered with 1 ml per 40 g of body weight (25 μg/kg of body weight) of a test sample or the negative sample once a day using a sonde.

TNF-α = TNF-α production by epididymal fat tissues collected from treated insulin-resistant AKR mice (ELISA); details: for TNF-α: culture supernatant of epididymal fat tissue after 1 hour culture, 60th day of oral administration, 25 μg/kg once a day; for Effect on production of TNF-α as compared with negative sample group: fat tissues, 60th day, 25 μg/kg oral once a day, Tukey-Kramer's test
Experimental: as §1, §2, §3

| SMILES | Change in blood glucose level after administration of insulin (FIG. 1) [1] | MCP-1 (MCP-1) [pg/mL] | Effect on production of MCP-1 as compared with negative sample group (MCP-1) | Free fatty acid [2] [mEp/l] | Test sample/negative sample (free fatty acid level in serum) [2] | TNF-α (TNF-α) [pg/mL] | Effect on production of TNF-α as compared with negative sample group (TNF-α) |
| --- | --- | --- | --- | --- | --- | --- | --- |
| CC(C)CCCC(C)C1CCC2C3=CCC4C(C)C(O)CCC4(C)C3CCC21C (stereo not drawn) [Test Sample 1, 4-methylcholest-7-en-3-ol] | rapid reduction in blood glucose levels | 100.86 ± 8.31 | significant inhibitory effects | 1.35 ± 0.23 | 86.4% and 84.5% | 33.73 ± 1.68 | significant inhibitory effects |
| CC(C)C(C)CCC(C)C1CCC2C3=CCC4C(C)C(O)CCC4(C)C3CCC21C (stereo not drawn) [Test Sample 2, 4-methylergost-7-en-3-ol] | rapid reduction in blood glucose levels | 95.56 ± 10.56 | significant inhibitory effects | 1.21 ± 0.22 | 81.6% | 32.71 ± 1.70 | significant inhibitory effects |
| CCC(CCC(C)C1CCC2C3=CCC4C(C)C(O)CCC4(C)C3CCC21C)C(C)C (stereo not drawn) [Test Sample 3, 4-methylstigmast-7-en-3-ol] | rapid reduction in blood glucose levels | 87.80 ± 9.24 | significant inhibitory effects | 0.90 ± 0.15 | 60.8% | 29.80 ± 3.82 | significant inhibitory effects |
